Starred links: 1 amine or outer side, 2 acyl side, 3 side chain; linkers in the order of their positions; H or OH if unused. Non-standard residues stand in square brackets, D forms with d. Residues, ends and D or L forms follow the SMILES beside them. *: point of attachment. Oic = O=C(O)[C@@H]1C[C@@H]2CCCC[C@@H]2N1; Phe(4-Cl) = N[C@@H](Cc1ccc(Cl)cc1)C(=O)O; γGlu = O=C(O)[C@H](CCC(=O)[*:2])N[*:1]; NMeR = CN[C@@H](CCCNC(=N)N)C(=O)O; Palmitoyl = CCCCCCCCCCCCCCCC(=O)*; Tridecanoyl = CCCCCCCCCCCCC(=O)*; hArg = N=C(N)NCCCC[C@H](N)C(=O)O; Cha = N[C@@H](CC1CCCCC1)C(=O)O; Gly(N-CH2CH2OH) = O=C(O)CNCCO; Aic = NC1(C(=O)O)Cc2ccccc2C1; Tle = CC(C)(C)[C@H](N)C(=O)O; β3hP = O=C(O)C[C@@H]1CCCN1; Pip = O=C(O)[C@@H]1CCCCN1; Nle = CCCC[C@H](N)C(=O)O; AEEA = NCCOCCOCC(=O)O; Aib = CC(C)(N)C(=O)O; Inp = O=C(O)C1CCNCC1
Assays:
Assay type in all cases: in vitro ADME
[1] = In vitro stability in rat liver homogenate; settings: tissue homogenate
Procedure, shortened: (§1)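 Incubations: 5 μM apelin peptide, 37° C., 4 hr, in rat plasma, liver or kidney homogenate. Read-out via high resolution LC-MS after MeOH/internal standard precipitation and centrifugation.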

[2] = In vitro stability in rat kidney homogenate; settings: rat, tissue homogenate
Procedure: Apelin peptides were spiked into rat plasma, liver homogenate, and kidney homogenate, which were obtained from commercial sources, to a final concentration of 5 μM. The samples were then incubated at 37° C. over a period of 4 hr. […] In a typical experiment, an aliquot of 100 μL of sample was taken from the incubation vial, followed by addition of 300 μL of MeOH containing internal standard. The quenched sample was centrifuged at 5500 g for 15 min after 15 min vortex in room temperature. The supernatant was then analyzed by high resolution LC-MS. […] In vitro plasma, […], and kidney stability results are shown below in Table 14.

[3] = In vitro stability in rat plasma
Procedure, shortened: as §1

CCCCCCCCCCCCC(=O)N[C@@H](CCC(=O)NCCOCCOCC(=O)NCCOCCOCC(=O)N[C@@H](CCCC)C(=O)N[C@@H](CCC(N)=O)C(=O)N[C@@H](CCCNC(=N)N)C(=O)N1CCC[C@H]1C(=O)N[C@@H](CCCCNC(=N)N)C(=O)N[C@@H](CC1CCCCC1)C(=O)N[C@@H](CO)C(=O)N[C@@H](Cc1c[nH]cn1)C(=O)N[C@@H](CCCCN)C(=O)NCC(=O)N1[C@H](C(=O)N[C@@H](CCCC)C(=O)N2CCC[C@H]2C(=O)N[C@@H](Cc2ccc(Cl)cc2)C(=O)O)C[C@@H]2CCCC[C@@H]21)C(=O)O [compound 338] ({Tridecanoyl-γGlu-AEEA-AEEA}-[Nle]QRP[hArg][Cha]SHKG[Oic][Nle]P[Phe(4-Cl)]-OH)
remaining at 4 h, 5 μM [1]: 12%
remaining at 4 h, 5 μM [2]: 1%
remaining at 4 h, 5 μM [3]: 76%

CCCCCCCCCCCCC(=O)N[C@@H](CCC(=O)NCCOCCOCC(=O)NCCOCCOCC(=O)N[C@@H](CCCNC(=N)N)C(=O)N[C@@H](CCC(N)=O)C(=O)N[C@@H](CCCNC(=N)N)C(=O)N1CCC[C@H]1C(=O)N[C@@H](CCCC)C(=O)N[C@@H](CC1CCCCC1)C(=O)N[C@@H](C)C(=O)N[C@@H](Cc1c[nH]cn1)C(=O)N[C@@H](CCCCN)C(=O)NCC(=O)N1[C@H](C(=O)N[C@@H](CCCC)C(=O)N2CCC[C@H]2C(=O)N[C@@H](Cc2ccc(Cl)cc2)C(=O)O)C[C@@H]2CCCC[C@@H]21)C(=O)O [compound 344] ({Tridecanoyl-γGlu-AEEA-AEEA}-RQRP[Nle][Cha]AHKG[Oic][Nle]P[Phe(4-Cl)]-OH)
remaining at 4 h, 5 μM [1]: 6%
remaining at 4 h, 5 μM [2]: 0%
remaining at 4 h, 5 μM [3]: 88%

CCCCCCCCCCCCC(=O)N[C@@H](CCC(=O)NCCOCCOCC(=O)NCCOCCOCC(=O)N[C@H](CCC(N)=O)C(=O)N[C@@H](CCCNC(=N)N)C(=O)N1CCCC1(C)C(=O)N[C@@H](CCCCNC(=N)N)C(=O)NC(CC(=O)N[C@@H](CO)C(=O)N[C@@H](Cc1c[nH]cn1)C(=O)N[C@@H](CCCCN)C(=O)NCC(=O)N1CCCC1(C)C(=O)N[C@@H](CCCC)C(=O)N1CCCC1(C)C(=O)N[C@@H](Cc1ccc(Cl)cc1)C(=O)O)C(C)C)C(=O)O (stereo partly drawn) [compound 504]
remaining at 4 h, 5 μM [1]: 11%
remaining at 4 h, 5 μM [2]: 4%
remaining at 4 h, 5 μM [3]: > 90%

CCCCCCCCCCCCC(=O)N[C@@H](CCC(=O)NCCOCCOCC(=O)NCCOCCOCC(=O)N[C@@H](CCC(N)=O)C(=O)N[C@@H](CCCNC(=N)N)C(=O)N1CCC[C@H]1C(=O)N(C)[C@@H](CCCNC(=N)N)C(=O)N[C@@H](CC(C)C)C(=O)N(CCO)CC(=O)N[C@@H](Cc1c[nH]cn1)C(=O)N[C@@H](CCCCN)C(=O)NCC(=O)N1CCC[C@H]1C(=O)N[C@@H](CCCC)C(=O)N1CCC[C@H]1C(=O)N[C@@H](Cc1ccc(Cl)cc1)C(=O)O)C(=O)O [compound 467] ({Tridecanoyl-γGlu-AEEA-AEEA}-QRP[NMeR]L[Gly(N-CH2CH2OH)]HKGP[Nle]P[Phe(4-Cl)]-OH)
remaining at 4 h, 5 μM [1]: 87%
remaining at 4 h, 5 μM [2]: 83%
remaining at 4 h, 5 μM [3]: 27%

CCCCCCCCCCCCC(=O)N[C@@H](CCC(=O)NCCOCCOCC(=O)NCCOCCOCC(=O)N[C@H](CCC(N)=O)C(=O)N[C@@H](CCCNC(=N)N)C(=O)N1CCC[C@H]1C(=O)N(C)[C@@H](CCCNC(=N)N)C(=O)N[C@@H](CC1CCCCC1)C(=O)N[C@@H](CO)C(=O)N[C@@H](Cc1c[nH]cn1)C(=O)N[C@@H](CCCCN)C(=O)NCC(=O)N1[C@H](C(=O)N[C@@H](CCCC)C(=O)N2CCC[C@H]2C(=O)N[C@@H](Cc2ccc(Cl)cc2)C(=O)O)C[C@@H]2CCCC[C@@H]21)C(=O)O [compound 377] ({Tridecanoyl-γGlu-AEEA-AEEA}-[dQ]RP[NMeR][Cha]SHKG[Oic][Nle]P[Phe(4-Cl)]-OH)
remaining at 4 h, 5 μM [1]: 4%
remaining at 4 h, 5 μM [2]: 99%
remaining at 4 h, 5 μM [3]: 65%

CCCCCCCCCCCCC(=O)N[C@@H](CCC(=O)NCCOCCOCC(=O)NCCOCCOCC(=O)N[C@H](CCC(N)=O)C(=O)N[C@@H](CCCCNC(=N)N)C(=O)N1CCC[C@H]1C(=O)N[C@H](CCCNC(=N)N)C(=O)N[C@@H](CC1CCCCC1)C(=O)N[C@@H](CO)C(=O)N[C@@H](Cc1c[nH]cn1)C(=O)N[C@@H](CCCCN)C(=O)N[C@H](C(=O)N1[C@H](C(=O)N[C@@H](CCCC)C(=O)N2CCC[C@H]2C(=O)N[C@@H](Cc2ccc(Cl)cc2)C(=O)O)C[C@@H]2CCCC[C@@H]21)C(C)(C)C)C(=O)O [compound 371] ({Tridecanoyl-γGlu-AEEA-AEEA}-[dQ][hArg]P[dR][Cha]SHK[Tle][Oic][Nle]P[Phe(4-Cl)]-OH)
remaining at 4 h, 5 μM [1]: 81%
remaining at 4 h, 5 μM [2]: 28%
remaining at 4 h, 5 μM [3]: 90%

CCCCCCCCCCCCC(=O)N[C@@H](CCC(=O)NCCOCCOCC(=O)NCCOCCOCC(=O)N[C@@H](CCC(N)=O)C(=O)N[C@@H](CCCNC(=N)N)C(=O)N1CCC[C@H]1C(=O)N[C@@H](CCCCNC(=N)N)C(=O)N[C@@H](CC(C)C)C(=O)N[C@@H](CO)C(=O)N[C@@H](Cc1c[nH]cn1)C(=O)N[C@@H](CCCCN)C(=O)NCC(=O)N1[C@H](C(=O)N[C@@H](CCCC)C(=O)N2CCC[C@H]2C(=O)N[C@@H](Cc2ccc(Cl)cc2)C(=O)O)C[C@@H]2CCCC[C@@H]21)C(=O)O [compound 356] ({Tridecanoyl-γGlu-AEEA-AEEA}-QRP[hArg]LSHKG[Oic][Nle]P[Phe(4-Cl)]-OH)
remaining at 4 h, 5 μM [1]: 2%
remaining at 4 h, 5 μM [2]: 0%
remaining at 4 h, 5 μM [3]: 87%

CCCCCCCCCCCCC(=O)N[C@@H](CCC(=O)N[C@@H](CCC(=O)NCCOCCOCC(=O)N[C@H](CCC(N)=O)C(=O)N[C@@H](CCCNC(=N)N)C(=O)N1CCC[C@H]1C(=O)N(C)[C@@H](CCCNC(=N)N)C(=O)N[C@@H](CC1CCCCC1)C(=O)N[C@@H](CO)C(=O)N[C@@H](Cc1c[nH]cn1)C(=O)N[C@@H](CCCCN)C(=O)NCC(=O)N1[C@H](C(=O)N[C@@H](CCCC)C(=O)NC(C)(C)C(=O)N[C@@H](Cc2ccc(Cl)cc2)C(=O)O)C[C@@H]2CCCC[C@@H]21)C(=O)O)C(=O)O [compound 535] ({Tridecanoyl-γGlu-γGlu-AEEA}-[dQ]RP[NMeR][Cha]SHKG[Oic][Nle][Aib][Phe(4-Cl)]-OH)
remaining at 4 h, 5 μM [1]: 3%
remaining at 4 h, 5 μM [2]: < 1%
remaining at 4 h, 5 μM [3]: 89%

CCCCCCCCCCCCC(=O)N[C@@H](CCC(=O)NCCOCCOCC(=O)NCCOCCOCC(=O)N[C@@H](CCCCNC(=N)N)C(=O)N[C@@H](CCC(N)=O)C(=O)N[C@@H](CCCCNC(=N)N)C(=O)N1CCC[C@H]1C(=O)N[C@@H](CCCCNC(=N)N)C(=O)N[C@@H](CC1CCCCC1)C(=O)N[C@@H](CO)C(=O)N[C@@H](Cc1c[nH]cn1)C(=O)N[C@@H](CCCCN)C(=O)NCC(=O)N1[C@H](C(=O)N[C@@H](CCCC)C(=O)N2CCC[C@H]2C(=O)N[C@@H](Cc2ccc(Cl)cc2)C(=O)O)C[C@@H]2CCCC[C@@H]21)C(=O)O [compound 490] ({Tridecanoyl-γGlu-AEEA-AEEA}-[hArg]Q[hArg]P[hArg][Cha]SHKG[Oic][Nle]P[Phe(4-Cl)]-OH)
remaining at 4 h, 5 μM [1]: 9%
remaining at 4 h, 5 μM [2]: < 1%
remaining at 4 h, 5 μM [3]: 88%

CCCCCCCCCCCCC(=O)N[C@@H](CCC(=O)NCCOCCOCC(=O)NCCOCCOCC(=O)N[C@@H](CCC(N)=O)C(=O)N[C@@H](CCCNC(=N)N)C(=O)N1CCC[C@H]1C(=O)N(C)[C@@H](CCCNC(=N)N)C(=O)N[C@@](C)(CC(C)C)C(=O)N[C@@H](CO)C(=O)N[C@@H](Cc1c[nH]cn1)C(=O)N[C@@H](CCCCN)C(=O)NCC(=O)N1CCC[C@@]1(C)C(=O)N[C@@H](CCCC)C(=O)N1CCC[C@H]1C(=O)N[C@@H](Cc1ccc(Cl)cc1)C(=O)O)C(=O)O [compound 387]
remaining at 4 h, 5 μM [1]: 4%
remaining at 4 h, 5 μM [2]: 1%
remaining at 4 h, 5 μM [3]: 73%

CCCCCCCCCCCCCCCC(=O)N[C@@H](CCC(=O)NCCOCCOCC(=O)NCCOCCOCC(=O)N[C@H](CCC(N)=O)C(=O)N[C@@H](CCCNC(=N)N)C(=O)N1CCC[C@H]1C(=O)N(C)[C@@H](CCCNC(=N)N)C(=O)N[C@@H](CC1CCCCC1)C(=O)N[C@@H](CO)C(=O)N[C@@H](Cc1c[nH]cn1)C(=O)N[C@@H](CCCCN)C(=O)NCC(=O)N1[C@H](C(=O)N[C@@H](CCCC)C(=O)N2CCC(C(=O)N[C@@H](Cc3ccc(Cl)cc3)C(=O)O)CC2)C[C@@H]2CCCC[C@@H]21)C(=O)O [compound 587] ({Palmitoyl-γGlu-AEEA-AEEA}-[dQ]RP[NMeR][Cha]SHKG[Oic][Nle][Inp][Phe(4-Cl)]-OH)
remaining at 4 h, 5 μM [1]: 64%
remaining at 4 h, 5 μM [2]: 34%
remaining at 4 h, 5 μM [3]: > 90%

CCCCCCCCCCCCC(=O)N[C@@H](CCC(=O)NCCOCCOCC(=O)NCCOCCOCC(=O)N[C@@H](CCC(N)=O)C(=O)N1CCC[C@H]1CC(=O)N(C)[C@@H](CCCNC(=N)N)C(=O)N[C@@H](CC1CCCCC1)C(=O)N[C@@H](CO)C(=O)N[C@@H](Cc1c[nH]cn1)C(=O)N[C@@H](CCCCN)C(=O)NCC(=O)N1[C@H](C(=O)N[C@@H](CCCC)C(=O)NC(C)(C)C(=O)N[C@@H](Cc2ccc(Cl)cc2)C(=O)O)C[C@@H]2CCCC[C@@H]21)C(=O)O [compound 550] ({Tridecanoyl-γGlu-AEEA-AEEA}-Q[β3hP][NMeR][Cha]SHKG[Oic][Nle][Aib][Phe(4-Cl)]-OH)
remaining at 4 h, 5 μM [1]: 2%
remaining at 4 h, 5 μM [2]: < 1%
remaining at 4 h, 5 μM [3]: > 90%

CCCCCCCCCCCCCCCC(=O)N[C@@H](CCC(=O)NCCOCCOCC(=O)NCCOCCOCC(=O)N[C@H](CCC(N)=O)C(=O)N[C@@H](CCCNC(=N)N)C(=O)N1CCC[C@H]1C(=O)N(C)[C@@H](CCCNC(=N)N)C(=O)N[C@@H](CC1CCCCC1)C(=O)N[C@@H](CO)C(=O)N[C@@H](Cc1c[nH]cn1)C(=O)N[C@@H](CCCCN)C(=O)NCC(=O)N1CCCC[C@H]1C(=O)N[C@@H](CCCC)C(=O)N1CCC[C@H]1C(=O)NC1(C(=O)O)Cc2ccccc2C1)C(=O)O [compound 590] ({Palmitoyl-γGlu-AEEA-AEEA}-[dQ]RP[NMeR][Cha]SHKG[Pip][Nle]P[Aic]-OH)
remaining at 4 h, 5 μM [1]: 11%
remaining at 4 h, 5 μM [2]: 4%
remaining at 4 h, 5 μM [3]: 86%

From US11807693B2 (priority 2014, dated 2023)
